Where two headings read alike, the source gives them in different places.
Test system: S. aureus clinical isolates
Assay: microbe, parasite or virus in culture
Format: cell-based
Settings: Staphylococcus aureus, read-out: MIC

Measured: MIC

CC(=O)NC[C@H]1CN(c2ccc(N3CCOCC3)c(F)c2)C(=O)O1 [Linezolid]
1 µg/mL: MSSA / NRS 52, S. aureus IHMA 1308252, NRS52, MSSA / VSSA* (*Expected VAN intermediate, confirmed VAN susceptible twice), test date 2018-11-07 | MSSA / USA100 / VRSA, S. aureus IHMA 672236, VRS6, MSSA / VRSA, USA100 | MSSA, S. aureus IHMA 1587279, MSSA / VSSA
4 µg/mL: MRSA, S. aureus IHMA 1622252, MRSA / VSSA | MRSA, S. aureus IHMA 1622527, MRSA / VSSA | MRSA, S. aureus IHMA 1732989, MRSA / VSSA | MRSA, S. aureus IHMA 1766357, MRSA / VSSA | MSSA / NRS 12 / VISA, S. aureus IHMA 1308244, NRS12, MSSA / VISA | MSSA, S. aureus IHMA 1563826, MSSA / VSSA | MSSA, S. aureus IHMA 1575652, MSSA / VSSA | MSSA, S. aureus IHMA 1576329, MSSA / VSSA | MSSA, S. aureus IHMA 1577800, MSSA / VSSA | MSSA, S. aureus IHMA 1578560, MSSA / VSSA | MSSA, S. aureus IHMA 1584230, MSSA / VSSA | MSSA, S. aureus IHMA 1592751, MSSA / VSSA | MSSA, S. aureus IHMA 1597120, MSSA / VSSA | MSSA, S. aureus IHMA 1599506, MSSA / VSSA | MSSA, S. aureus IHMA 1602078, MSSA / VSSA
2 µg/mL: MRSA, S. aureus IHMA 1621638, MRSA / VSSA | MRSA, S. aureus IHMA 1695391, MRSA / VSSA | MRSA, S. aureus IHMA 1703428, MRSA / VSSA | MRSA, S. aureus IHMA 1720350, MRSA / VSSA | MRSA, S. aureus IHMA 1742231, MRSA / VSSA | MSSA / NRS 13 / VISA, S. aureus IHMA 1308245, NRS13, MSSA / VISA | MSSA / NRS 14 / VISA, S. aureus IHMA 1308246, NRS14, MSSA / VISA | MSSA / NRS 17 / VISA, S. aureus IHMA 1308247, NRS17, MSSA / VISA | MSSA, S. aureus IHMA 1565492, MSSA / VSSA | MSSA, S. aureus IHMA 1569499, MSSA / VSSA | MSSA, S. aureus IHMA 1569754, MSSA / VSSA | MSSA, S. aureus IHMA 1574202, MSSA / VSSA | MSSA, S. aureus IHMA 1575779, MSSA / VSSA | MSSA, S. aureus IHMA 1580233, MSSA / VSSA | MSSA, S. aureus IHMA 1580925, MSSA / VSSA | MSSA, S. aureus IHMA 1580955, MSSA / VSSA | MSSA, S. aureus IHMA 1582691, MSSA / VSSA | MSSA, S. aureus IHMA 1591459, MSSA / VSSA | MSSA, S. aureus IHMA 1592749, MSSA / VSSA | MSSA, S. aureus IHMA 1594297, MSSA / VSSA | MSSA, S. aureus IHMA 1597125, MSSA / VSSA | MSSA, S. aureus IHMA 1599157, MSSA / VSSA | MSSA, S. aureus IHMA 1604586, MSSA / VSSA | MSSA, S. aureus IHMA 1604609, MSSA / VSSA | MSSA, S. aureus IHMA 1609919, MSSA / VSSA | MSSA, S. aureus IHMA 1622864, MSSA / VSSA | MSSA, S. aureus IHMA 1626392, MSSA / VSSA | MSSA, S. aureus IHMA 1713793, MSSA / VSSA
8 µg/mL: MSSA, S. aureus IHMA 1582586, MSSA / VSSA
0.5 µg/mL: MRSA, S. aureus IHMA 1666371, MRSA / VSSA | MSSA / NRS 28 / VISA, S. aureus IHMA 1308249, NRS28, MSSA / VISA

From article PMC7561186, “Rational design of balanced dual-targeting antibiotics with limited resistance” (PLoS Biology, 2020)
